Test results: patent US20080027033A1, “Method and Composition for Treatment of Cutaneous Lesions” (Acrux DDS Pty Ltd, priority 2003, published 2008)

Test: diffusion across skin after transdermal spray administration
Details: effect of adding octyl salicylate to the transdermal spray formulation (Example 1); predicted cumulative amount, FIGS. 1 and 2

## C[C@]12CC[C@@H]3c4ccc(O)cc4CC[C@H]3[C@@H]1CC[C@@H]2O [estradiol]
  amount diffusing across the skin over 24 hours: significant marked increase
